Converted amounts (≈) assume the structure as drawn. Residues, ends and D or L forms follow the SMILES beside them.
Tests used:
[1] = parameters: method as in earlier work; details: cited from earlier work
[2] = tested on: human red blood cells (hRBCs); format: cell-based; details: red cells of human, 1 h
Summary of the method: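 Fresh EDTA-anticoagulated human RBCs, PBS-washed, at 4% (v/v) final were exposed to lipopeptides at 0.5–256 µg/mL for 1 h at 37 °C. Released haemoglobin in supernatant read at 540 nm; PBS as 0% and 1% Triton X-100 as 100% haemolysis. Triplicates.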

[3] = tested on: K. pneumoniae ATCC 700603; format: cell-based, Klebsiella pneumoniae; details: ATCC 700603, 18 h
Summary of the method: (§1)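 CLSI broth microdilution in MHB, bacterial inoculum 5 × 10^5 CFU/mL exposed to lipopeptides at 0.5–256 µg/mL, 18 h at 37 °C. MIC taken as lowest concentration inhibiting noticeable growth; triplicate runs.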

[4] = tested on: A. baumannii ATCC BAA-1605; format: cell-based, Acinetobacter baumannii; details: ATCC BAA-1605, 18 h
Summary of the method: as §1

C. albicans ATCC 10231 = format: cell-based, Candida albicans; details: ATCC 10231, 24 h, pH 7
K. aerogenes ATCC 13048 = format: cell-based, Klebsiella aerogenes; details: ATCC 13048, 18 h
Summary of the method: as §1

P. aeruginosa ATCC 9027 = format: cell-based, Pseudomonas aeruginosa; details: ATCC 9027, 18 h
Summary of the method: as §1

[5] = Determination of peptide hydrophobicity with RP-HPLC (adjusted retention time); format: physicochemical; details: Table 3; adjusted retention time as hydrophobicity; RP-HPLC C18, linear 10–55% acetonitrile over 60 min, 0.1% TFA, 25.0 °C, UV 214 nm, triplicate
Summary of the method: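 Peptides at 1 g/L in water with 0.1% TFA run on a C18 column (3.0 × 100 mm, 5 µm). Elution with a linear 10–55% acetonitrile gradient over 60 min, 0.1% TFA in both eluents, 0.5 mL/min, 25.0 ± 0.1 °C. Detection at 214 nm, in triplicate.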

E. faecium ATCC 700221 = format: cell-based, Enterococcus faecium; details: ATCC 700221, 18 h
Summary of the method: as §1

S. aureus ATCC 25923 = format: cell-based, Staphylococcus aureus; details: ATCC 25923, 18 h
Summary of the method: as §1

[6] = tested on: S. aureus ATCC 33591 (MRSA); format: cell-based, Staphylococcus aureus; details: ATCC 33591, 18 h
Summary of the method: as §1

Row | Structure (SMILES) | pKa of the side chain [1] | HC50 [2] | MIC K [3] | MIC A [4] | MIC CA (C. albicans ATCC 10231) | MIC E2 (K. aerogenes ATCC 13048) | MIC PA (P. aeruginosa ATCC 9027) | tR’ [5] | MIC E1 (E. faecium ATCC 700221) | MIC SA (S. aureus ATCC 25923) | MIC S [6]
1 | NCCCC[C@H](N)C(=O)O [Lys, lysine] | 10.67 | – | – | – | – | – | – | – | – | – | –
2 | CCCCCCCCCCCC(=O)N[C@@H](Cc1c[nH]c2ccccc12)C(=O)N[C@@H](CCCNC(=N)N)C(=O)N[C@@H](CCCNC(=N)N)C(N)=O [compound 97, C12-WRR-NH2] (HELM PEPTIDE1{[CCCCCCCCCCCC(=O)[*:2]].W.R.R.[am]}$$$$V2.0) | – | 42.42 (±0.57) µg/mL | 256 µg/mL (≈ 367 µM) | 32 µg/mL (≈ 45.8 µM) | 8 µg/mL (≈ 11.5 µM) | 256 µg/mL (≈ 367 µM) | 8 µg/mL (≈ 11.5 µM) | 40.79 min | 8 µg/mL (≈ 11.5 µM) | 4 µg/mL (≈ 5.73 µM) | 2 µg/mL (≈ 2.87 µM)
3 | CCCCCCCCCCCCCC(=O)N[C@@H](Cc1c[nH]c2ccccc12)C(=O)N[C@@H](CCCNC(=N)N)C(=O)N[C@@H](CCCNC(=N)N)C(N)=O [compound 98, C14-WRR-NH2] (HELM PEPTIDE1{[CCCCCCCCCCCCCC(=O)[*:2]].W.R.R.[am]}$$$$V2.0) | – | 36.91 (±0.89) µg/mL | 64 µg/mL (≈ 88.2 µM) | 128 µg/mL (≈ 176 µM) | 4 µg/mL (≈ 5.51 µM) | 32 µg/mL (≈ 44.1 µM) | 8 µg/mL (≈ 11 µM) | 47.11 min | 8 µg/mL (≈ 11 µM) | 4 µg/mL (≈ 5.51 µM) | 2 µg/mL (≈ 2.75 µM)
4 | CCCCCCCCCCCC(=O)N[C@@H](Cc1ccc(O)cc1)C(=O)N[C@@H](CCCNC(=N)N)C(=O)N[C@@H](CCCNC(=N)N)C(N)=O [compound 101, C12-YRR-NH2] (HELM PEPTIDE1{[CCCCCCCCCCCC(=O)[*:2]].Y.R.R.[am]}$$$$V2.0) | – | 123.08 (±1.12) µg/mL | 128 µg/mL (≈ 190 µM) | 32 µg/mL (≈ 47.4 µM) | 32 µg/mL (≈ 47.4 µM) | 128 µg/mL (≈ 190 µM) | 16 µg/mL (≈ 23.7 µM) | 36.17 min | 16 µg/mL (≈ 23.7 µM) | 8 µg/mL (≈ 11.9 µM) | 8 µg/mL (≈ 11.9 µM)
5 | CCCCCCCCCCCCCC(=O)N[C@@H](Cc1ccc(O)cc1)C(=O)N[C@@H](CCCNC(=N)N)C(=O)N[C@@H](CCCNC(=N)N)C(N)=O [compound 102, C14-YRR-NH2] (HELM PEPTIDE1{[CCCCCCCCCCCCCC(=O)[*:2]].Y.R.R.[am]}$$$$V2.0) | – | 46.52 (±5.24) µg/mL | 32 µg/mL (≈ 45.5 µM) | 32 µg/mL (≈ 45.5 µM) | 4 µg/mL (≈ 5.69 µM) | 64 µg/mL (≈ 91 µM) | 8 µg/mL (≈ 11.4 µM) | 42.73 min | 4 µg/mL (≈ 5.69 µM) | 4 µg/mL (≈ 5.69 µM) | 4 µg/mL (≈ 5.69 µM)
